For this assay, the target named is cAMP and cAMP-inhibited cGMP 3',5'-cyclic phosphodiesterase 10A (Homo sapiens, UniProt Q9Y233). As to the kind of experiment: PDE10A assay. The gist of the method:
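Scintillation proximity readout of [3H]cGMP hydrolysis (50 nM final substrate, 15 min) by 2 ng/well human PDE10A after 15 min compound preincubation at RT, pH 7.5 with MgCl2. Four-parameter logistic fit gave IC50, reported as pIC50.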

IC50 data for 60 molecules are collected here from BindingDB's records for doi:10.1007/s10822-022-00478-x (Roche Innovation Center Basel, F. Hoffmann-La Roche Ltd., 2022).

Take `CCn1nc(NC(=O)c2c(C(=O)N3CCC3)cnn2C)cc1C1CC1` [Roche-Dataset for PDE10A, Compound 1135]: it took 6.12 µM to reach half-maximal inhibition (IC50).
Regarding `COCCNC(=O)c1cc2[nH]c(-c3ccccc3)nc2cc1NC(=O)c1cc(Br)c[nH]c1=O` [Roche-Dataset for PDE10A, Compound 303], the half-maximal inhibitory concentration (IC50) amounted to 0.00717 µM.
For `CN(C)C(=O)c1cnn(C)c1C(=O)Nc1ccn2nc(-c3ccnc(S(C)(=O)=O)c3)nc2c1` [Roche-Dataset for PDE10A, Compound 421], the midpoint of inhibition, the IC50, lay at 0.00881 µM.
In turn, `Cc1cc(Cl)c(C)n2nc(CCc3nc(N4CCCC4)n(C)n3)nc12` [Roche-Dataset for PDE10A, Compound 374] returned a half-inhibitory concentration (IC50) of 0.00047 µM.
`Cc1cc(C#Cc2nc(N3CCCC3)nn2C)nn2c(C)c(C(F)(F)F)nc12` [US9617271, 54]: it took 0.00064 µM to reach half-maximal inhibition (IC50).
`Cc1cncc(CCc2nc(N3CCCC3)nn2C)n1` [Roche-Dataset for PDE10A, Compound 989]: the half-inhibitory concentration (IC50) turned out to be 7.9 µM.
With `Cn1cc(-c2ccccc2)nc1/C=C/c1ncc(Cl)nc1Cl` [Roche-Dataset for PDE10A, Compound 465], 0.824 µM corresponded to half-maximal inhibition (IC50).
Regarding `C/C(=C\c1nc2c(C)ncc(C)n2n1)c1nc(N2CCCC2)nn1C` [Roche-Dataset for PDE10A, Compound 805], the IC50 is 0.062 µM.
For `O=C(NCc1cn(-c2ccccc2)cn1)c1nc(C2CC2)cnc1Nc1cncnc1` [Roche-Dataset for PDE10A, Compound 682], the half-maximal inhibitory concentration (IC50) is 0.053 µM.
In the case of `Cc1c(Br)cc(C(F)(F)F)c2nc(CCc3nc(N4CCCC4)nn3C)nn12` [Roche-Dataset for PDE10A, Compound 135], inhibition was half-maximal at 0.00043 µM (IC50).
The same measure for `O=C(Nc1cc(-c2ccc(Cl)cn2)nn1CCO)c1nc(C2CC2)ccc1Nc1cncnc1` [US8470820, 26]: 0.00159 µM.
`CC(C)Cn1ccc(NC(=O)c2c(C(=O)N3CCC3)cnn2C)n1` [Roche-Dataset for PDE10A, Compound 1055] displayed a 50% inhibitory concentration (IC50) of 0.258 µM.
The figure for `Cn1nc(-c2ccccn2)cc1NC(=O)c1c(I)cc[nH]c1=O` [Roche-Dataset for PDE10A, Compound 774] is 2.8 µM; for `Cn1ncc(C(=O)N2CCOCC2)c1C(=O)Nc1cc2nc(N3CCCC3)nn2cn1` [Roche-Dataset for PDE10A, Compound 426] it is 0.005 µM; for `Cc1ncc(C)n2nc(/C=C/c3nc(N4CCC[C@@H]4C(F)(F)F)nn3C)nc12` [Roche-Dataset for PDE10A, Compound 782] it is 0.0034 µM.
On to `O=C1NCc2ccc(NC(=O)c3nc(C4CC4)ccc3Nc3cncnc3)cc21` [Roche-Dataset for PDE10A, Compound 788], for which the IC50 was 0.02 µM.
`CNC(=O)c1c(NC(=O)c2c(C(=O)N3CCC3)cnn2C)cnn1C` [Roche-Dataset for PDE10A, Compound 1129]: the IC50 turned out to be 8.33 µM.
For the molecule `CC(C)NC(=O)c1nc(C2CC2)cnc1OCc1nc(-c2ccccc2)cn1C` [Roche-Dataset for PDE10A, Compound 252], the IC50 stood at 1.06 µM.
Molecule `Cn1ncc(C(N)=O)c1C(=O)Nc1ccn2nc(-c3ccccc3)nc2c1` [Roche-Dataset for PDE10A, Compound 401] showed an IC50 of 0.016 µM.
With `CC(C)n1ncc2cc(CCc3nc(-c4ccccc4)cn3C)ncc21` [Roche-Dataset for PDE10A, Compound 48], the IC50 was found to be 0.859 µM.
For `Cc1ncc(C)n2nc(CCc3nc(-n4cccn4)nn3C)nc12` [Roche-Dataset for PDE10A, Compound 836], 0.169 µM corresponded to half-maximal inhibition (IC50).
`CCn1nccc1C(=O)Nc1cc2nc(-c3ccccc3)[nH]c2cc1C(=O)NC` [Roche-Dataset for PDE10A, Compound 482] came in with an IC50 of 0.011 µM.
Take `O=C(Nc1ccn(CCF)n1)c1nc(C2CC2)ccc1Nc1cncnc1` [Roche-Dataset for PDE10A, Compound 698]: the 50% inhibitory concentration (IC50) came out at 0.00984 µM.
`CCN(C)C(=O)c1cnn(C)c1C(=O)Nc1ccn2nc(N3CCOCC3)nc2c1` [Roche-Dataset for PDE10A, Compound 315] registered a half-maximal inhibitory concentration (IC50) of 0.00567 µM.
As for `CC(C)c1cc(NC(=O)c2c(C(=O)N3CCC3)cnn2C)[nH]n1` [Roche-Dataset for PDE10A, Compound 1070], inhibition was half-maximal at 10 µM (IC50).
The figure for `CCc1nc2ccc(OCc3cccc(N4CCCC4)n3)nn2c1C` [2-ethyl-3-methyl-6-((6-(pyrrolidin-1-yl)pyridin-2-yl)methoxy)imidazo[1,2-b]pyridazine] is 0.547 µM.
The figure for `CN(C)C(=O)Cn1cc(NC(=O)c2nc(C3CC3)cnc2Nc2cncnc2)cn1` [Roche-Dataset for PDE10A, Compound 787] is 0.671 µM; for `CC(C)n1ccc(NC(=O)c2nc(C3CC3)ccc2Nc2cncnc2)n1` [Roche-Dataset for PDE10A, Compound 692] it is 0.048 µM.
Molecule `Cc1nn2ccc(CCc3nc(N4CCCC4)nn3C)nc2c1C` [US9617271, 53] registered an IC50 of 0.017 µM.
For the molecule `COCCN(C)C(=O)c1cnn(C)c1C(=O)N[C@@H]1CCn2cc(-c3ccccc3)nc2C1` [Roche-Dataset for PDE10A, Compound 112], half-maximal inhibition (IC50) required 0.034 µM.
For `Cn1ncc(C(=O)N2CCC2)c1C(=O)Nc1cn(-c2ccc3ccccc3n2)cn1` [Roche-Dataset for PDE10A, Compound 137], the IC50 stood at 0.0007 µM.
Molecule `O=C(NCC1CCOCC1)c1nc(C2CC2)cnc1Nc1cncnc1` [Roche-Dataset for PDE10A, Compound 988] yielded an IC50 of 5.78 µM.
In the case of `O=C(Nc1nnc(-c2ccccn2)o1)c1nc(C2CC2)ccc1Nc1cncnc1` [US8470820, 64], the 50% inhibitory concentration (IC50) was 2.58 µM.
For the molecule `CN(C)c1nc2cc(NC(=O)c3c(C(=O)N4CCOCC4)cnn3C)ccn2n1` [Roche-Dataset for PDE10A, Compound 568], the midpoint of inhibition, the IC50, lay at 0.039 µM.
The molecule `Cc1cn2nc(CCc3nc(N4CCCC4)nn3C)nc2cn1` [Roche-Dataset for PDE10A, Compound 678] showed a 50% inhibitory concentration (IC50) of 0.929 µM.
`Cc1nc2cc(Cl)ccc2nc1OCc1nc(N2CCCC2)nn1C` [Roche-Dataset for PDE10A, Compound 982] returned an IC50 of 0.028 µM.
`Cn1cc(C(=O)Nc2ccn3cc(-c4ccccc4)nc3n2)c(C(=O)NCc2ccccn2)n1` [Roche-Dataset for PDE10A, Compound 1029] yielded an IC50 of 0.397 µM.
The same measure for `C[C@@H](NC(=O)c1ccc(NC(=O)c2nc(C3CC3)ccc2Nc2cncnc2)s1)c1ccccc1` [Roche-Dataset for PDE10A, Compound 563]: 0.32 µM; for `CN(C)c1nc(CCc2nccn2-c2ccccc2)nc2ccccc12` [Roche-Dataset for PDE10A, Compound 326]: 0.587 µM.
The molecule `Cc1cc(NC(=O)c2ccc3cc(-c4ccccc4)nn3c2)ccn1` [Roche-Dataset for PDE10A, Compound 384] showed a half-maximal inhibitory concentration (IC50) of 0.035 µM.
In the case of `O=C1c2ccccc2C(=O)N1CCc1nc(-c2ccccn2)no1` [Roche-Dataset for PDE10A, Compound 490], the IC50 worked out at 5.45 µM.
`O=C(Nc1ccn2nc(-c3ccccc3)nc2c1)c1cc(Cl)nc(N2CCCCC2)c1` [Roche-Dataset for PDE10A, Compound 86] came in with an IC50 of 0.052 µM.
Take `CNC(=O)c1cc(F)ccc1NC(=O)c1nc(C2CC2)cnc1Nc1cncnc1` [US8703768, 312]: the IC50 was 0.00095 µM.
For `O=C(Nc1cnc(-c2ccccn2)s1)c1nc(C2CC2)ccc1Nc1cncnc1`, the IC50 came out at 0.00226 µM.
With `CN(C)C(=O)Cc1cccc(NC(=O)c2nc(C3CC3)cnc2Nc2cncnc2)c1` [Roche-Dataset for PDE10A, Compound 693], the 50% inhibitory concentration (IC50) worked out at 0.097 µM.
The same measure for `Cn1nc(N2CCCC2)nc1/C=C/c1nc(N2CCCC2)nn1C` [Roche-Dataset for PDE10A, Compound 550]: 0.188 µM; for `CCOc1cccc(NC(=O)c2nc(C3CC3)cnc2Nc2cncnc2)c1` [Roche-Dataset for PDE10A, Compound 602]: 0.026 µM; for `O=C(NC1CCN(Cc2ccccc2)CC1)c1nc(C2CC2)cnc1Nc1cncnc1` [Roche-Dataset for PDE10A, Compound 823]: 5.05 µM.
On to `CCN(C)c1nc2cc(NC(=O)c3c(C(=O)N4CCOCC4)cnn3C)ccn2n1` [Roche-Dataset for PDE10A, Compound 493], for which 0.00555 µM corresponded to half-maximal inhibition (IC50).
As for `Cc1ncc(C)n2nc(CCc3nc(N4CC[C@@H](C)[C@H]4C)nn3C)nc12` [Roche-Dataset for PDE10A, Compound 392], half-maximal inhibition (IC50) was put at 0.043 µM.
On to `Cc1nc(C)n2nc(/C=C/c3nc(N4CCCC4)nn3C)nc2c1Cl` [Roche-Dataset for PDE10A, Compound 382], for which 0.024 µM corresponded to half-maximal inhibition (IC50).
The same measure for `Cc1c(Cl)cc(Cl)c2nc(CCc3nccs3)nn12` [Roche-Dataset for PDE10A, Compound 996]: 0.511 µM; for `Cn1cc(-c2ccccc2)nc1CCNC(=O)c1cccn2c(C(F)(F)F)nnc12` [Roche-Dataset for PDE10A, Compound 298]: 0.088 µM.
Regarding `CC(C)Cn1nc(-c2ccccn2)cc1NC(=O)c1nc(C2CC2)ccc1Nc1cncnc1` [US8470820, 28], the half-inhibitory concentration (IC50) amounted to 0.00124 µM.
`O=C(Nc1cc(C2CCCC2)n[nH]1)c1nc(C2CC2)ccc1Nc1cncnc1` [Roche-Dataset for PDE10A, Compound 653] came in with a 50% inhibitory concentration (IC50) of 0.375 µM.
The same measure for `CC(C)OC(=O)c1c(C(=O)Nc2ccn3nc(-c4ccccc4)nc3c2)cnn1C` [Roche-Dataset for PDE10A, Compound 428]: 0.015 µM; for `CNC(=O)c1cc2[nH]c(-c3ccccc3)nc2cc1NC(=O)c1c(C(=O)N2CCC2)cnn1C` [Roche-Dataset for PDE10A, Compound 439]: 0.069 µM.
`O=C(Nc1ccn(C2CC2)n1)c1nc(C2CC2)ccc1Nc1cncnc1` [Roche-Dataset for PDE10A, Compound 715] yielded an IC50 of 0.026 µM.
Take `CCOC(=O)c1cnn(C)c1C(=O)Nc1ccn2nc(-c3ccnc(F)c3)nc2c1` [Roche-Dataset for PDE10A, Compound 280]: it took 0.79 µM to reach half-maximal inhibition (IC50).
The figure for `O=C(O)c1cccnc1C(=O)Nc1ccn2nc(-c3ccccc3)nc2c1` [Roche-Dataset for PDE10A, Compound 381] is 0.641 µM.
